Assay results: the NIST ThermoML archive (doi:10.1021/acs.jced.5b00021)
Numbers after ± are expanded uncertainties.

Assay: molar heat capacity at constant pressure
Settings: 101.33 kPa, Crystal, Small sample (50 mg) DSC

Row | Structure (SMILES) | molar heat capacity at constant pressure (283 K) [J/K/mol] | molar heat capacity at constant pressure (293 K) [J/K/mol] | molar heat capacity at constant pressure (298 K) [J/K/mol] | molar heat capacity at constant pressure (303 K) [J/K/mol] | molar heat capacity at constant pressure (313 K) [J/K/mol] | molar heat capacity at constant pressure (323 K) [J/K/mol] | molar heat capacity at constant pressure (333 K) [J/K/mol] | molar heat capacity at constant pressure (343 K) [J/K/mol] | molar heat capacity at constant pressure (353 K) [J/K/mol]
1 | NC(N)=C([N+](=O)[O-])[N+](=O)[O-] [1,1-diamino-2,2-dinitroethene] | 169.55 ± 3.4 | 174.14 ± 3.6 | 176.51 ± 3.6 | 178.73 ± 3.6 | 183.32 ± 3.7 | 187.91 ± 3.7 | 192.5 ± 3.9 | 197.09 ± 4 | 201.68 ± 4
2 | O=[N+]([O-])C(=C1NCCCCN1)[N+](=O)[O-] [2-(dinitromethylene)-1,3-diazacycloheptane] | 204.6 ± 4 | 211.67 ± 4.2 | 215.31 ± 4.2 | 218.75 ± 4.4 | 226.03 ± 4.4 | 233.1 ± 4.6 | 240.18 ± 4.9 | 247.25 ± 4.9 | 254.33 ± 5.1
3 | O=[N+]([O-])C(=C1NCCCN1)[N+](=O)[O-] [2-(dinitromethylene)-1,3-diazacyclohexane] | 200.18 ± 4 | 205.26 ± 4.1 | 207.71 ± 4.1 | 210.16 ± 4.1 | 215.05 ± 4.3 | 220.13 ± 4.3 | 225.02 ± 4.5 | 230.1 ± 4.5 | 234.99 ± 4.7
4 | O=[N+]([O-])C(=C1NCCN1)[N+](=O)[O-] [2-(dinitromethylene)-1,3-diazacyclopentane] | 197.45 ± 4 | 202.67 ± 4 | 205.28 ± 4.2 | 207.89 ± 4.2 | 213.29 ± 4.4 | 218.52 ± 4.4 | 223.74 ± 4.5 | 229.14 ± 4.5 | 234.36 ± 4.7
5 | CC1CNC(=C([N+](=O)[O-])[N+](=O)[O-])N1 (stereo not given) [2-(dinitromethylene)-4-methylimidazolidine] | 209.78 ± 4.1 | 215.8 ± 4.3 | 218.81 ± 4.3 | 221.82 ± 4.5 | 227.84 ± 4.5 | 233.86 ± 4.7 | 239.88 ± 4.9 | 245.9 ± 4.9 | 251.92 ± 5.1
